Laboratory results taken from patent US7365083B2, “Amide derivatives as NMDA receptor antagonists” (Richter Gedeon Vegyeszeti Gyar Rt., priority 2000, dated 2008).
Read-outs that look alike come from different tables or passages of the source.

Assays:
Format in all cases: cell-based
NMDA receptors = biological target: T1, NMDA receptors (Rattus norvegicus, UniProt P35439+Q00960); experiment: NMDA antagonist potency in vitro by measurement of intracellular calcium concentration with a plate reader fluorimeter, primary neocortical cell cultures
T1 construct: primary neocortical cell cultures derived from 17 day old Charles River rat embryos; endogenous in cells; host or cells: primary neocortical neurons from 17 day old rat embryos, 4-7 days in vitro
T1 sequence (Q00960 27-1482, other chains not shown): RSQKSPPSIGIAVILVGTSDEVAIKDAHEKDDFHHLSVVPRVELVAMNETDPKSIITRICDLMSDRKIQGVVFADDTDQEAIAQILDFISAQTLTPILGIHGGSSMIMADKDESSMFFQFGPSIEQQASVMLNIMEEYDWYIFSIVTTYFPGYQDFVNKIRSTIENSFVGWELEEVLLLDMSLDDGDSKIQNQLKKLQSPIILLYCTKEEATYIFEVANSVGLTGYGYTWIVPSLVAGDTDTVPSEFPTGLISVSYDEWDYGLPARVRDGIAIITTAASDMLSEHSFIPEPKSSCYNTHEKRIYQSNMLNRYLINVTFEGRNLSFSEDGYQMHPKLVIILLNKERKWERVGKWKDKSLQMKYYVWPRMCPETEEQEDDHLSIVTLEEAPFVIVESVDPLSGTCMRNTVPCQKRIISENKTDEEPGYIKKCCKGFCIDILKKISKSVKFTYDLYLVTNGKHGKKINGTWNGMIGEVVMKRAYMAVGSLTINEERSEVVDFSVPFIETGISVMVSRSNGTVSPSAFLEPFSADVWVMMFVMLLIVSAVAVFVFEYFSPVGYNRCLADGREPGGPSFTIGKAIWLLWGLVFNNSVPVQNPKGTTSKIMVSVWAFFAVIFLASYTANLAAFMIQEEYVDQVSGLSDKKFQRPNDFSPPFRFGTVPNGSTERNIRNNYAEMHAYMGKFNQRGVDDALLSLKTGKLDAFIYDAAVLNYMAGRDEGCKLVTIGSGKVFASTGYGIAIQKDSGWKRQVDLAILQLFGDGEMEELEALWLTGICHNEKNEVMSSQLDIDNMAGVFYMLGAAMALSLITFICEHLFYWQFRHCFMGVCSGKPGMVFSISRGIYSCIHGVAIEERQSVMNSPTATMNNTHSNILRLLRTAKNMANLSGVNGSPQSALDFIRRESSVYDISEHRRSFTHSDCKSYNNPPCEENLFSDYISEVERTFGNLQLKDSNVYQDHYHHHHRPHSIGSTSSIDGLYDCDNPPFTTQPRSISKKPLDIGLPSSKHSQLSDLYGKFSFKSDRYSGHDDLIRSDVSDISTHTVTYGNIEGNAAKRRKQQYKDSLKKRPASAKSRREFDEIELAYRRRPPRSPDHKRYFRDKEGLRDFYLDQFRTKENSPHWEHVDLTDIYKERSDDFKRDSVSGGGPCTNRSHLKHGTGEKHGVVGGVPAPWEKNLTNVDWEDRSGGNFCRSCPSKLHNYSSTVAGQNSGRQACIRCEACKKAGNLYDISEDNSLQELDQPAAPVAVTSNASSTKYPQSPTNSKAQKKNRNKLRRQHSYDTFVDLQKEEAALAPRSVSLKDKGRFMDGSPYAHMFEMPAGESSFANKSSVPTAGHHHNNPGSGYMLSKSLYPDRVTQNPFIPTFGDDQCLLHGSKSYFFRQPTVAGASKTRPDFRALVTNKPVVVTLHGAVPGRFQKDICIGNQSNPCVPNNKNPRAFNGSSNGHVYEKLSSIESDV
Source text: It is known that during postnatal development the subunit composition of neuronal NMDA receptors is changing. […] Since NMDA receptors are known to be permeable to calcium ions upon excitation, we characterized the NMDA receptor activation by measurement of rise in intracellular calcium concentration following the agonist (NMDA) application to the cells.
Assessment of NMDA Antagonist Potency In Vitro by Measurement of Intracellular Calcium Concentration with a Plate Reader Fluorimeter
The cultures were used for the intracellular calcium measurements after 4-7 days in vitro. […] To stop the loading the cells were washed twice with the solution used for the measurement (140 mM NaCl, 5 mM KCl, 2 mM CaCl2, 5 mM HEPES, 5 mM HEPES-Na, 20 mM glucose, 10 μM glycine, pH=7.4). After washing the test compounds were added to the cells in the above solution (90 μl/well). Intracellular calcium measurements were carried out with a plate reader fluorimeter: elevation of Fluo-4-fluorescence and so, intracellular calcium was induced by application of 40 μM NMDA. Inhibitory potency of the test compounds was assessed by measuring the reduction in the calcium elevation in the presence of different concentrations of the compounds. After the measurement a standard calibration procedure with slight modifications was used to convert the fluorescent data to calcium concentration values [Meth. Cell.
Dose-response curves and IC50-values were calculated by using data derived from at least three independent experiments. Inhibitory potency of a compound at a single concentration point was expressed as percent inhibition of the NMDA response. Sigmoidal concentration-inhibition curves were fit to the data and IC50 values were determined as the concentration that produces half of the maximal inhibition caused by the compound.

NR1a/NR2B receptors = biological target: T2, NR1a/NR2B receptors (Rattus norvegicus, UniProt P35439+Q00960); experiment: NMDA antagonist potency on HEK293 cells stably expressing NR1a/NR2B subunits, fluorimetric method; details: for IC50: HEK293 cells stably expressing NR1a/NR2B, intracellular calcium, plate reader fluorimeter, means of 3 experiments, read-out: NR1/NR2B IC50
T2 construct: expressed in transfected cells
T2 sequence (Q00960 27-1482, other chains not shown): as above
Protocol: (§1) Genes cloned according to published sequences [gi508809 (rat NR1a), gi205738 (rat NR2B), gi2905805 (rat NR2A)] were inserted into inducible mammalian expression vectors bearing different resistance genes (hygromycine in case of NR1a or neomycine in case of NR2 subunits). The vector constructs were introduced into HEK293 cells using a cationic lipid-mediated transfection method. Protein expression was induced by 3 μM MuristeronA. Cells were maintained in the presence of 365 μM ketamine for 48-72 hours under an atmosphere of 95% air-5% CO2 at 37° C. before the experiments.
Assessment of NMDA Antagonist Potency on Cells Transfected with NR1a/NR2B Subunits—Fluorimetric Method
For establishment of cell clones stably expressing NR1a/NR2B receptors, transfected cells were exposed to the selecting antibiotics for 4 weeks then resistant clones were grown up. The expression of NR2B subunit protein was verified by a flow cytometry based immunocytochemical method. Positive clones were further tested for functional activity in patch clamp experiments. […] Induction of protein expression and maintenance of cells were the same as described above.
The cells were plated onto standard 96-well microplates. A plate reader-based fluorometric assay was used to measure NMDA antagonism. The method was essentially similar to that described above for testing primary cultures of rat cortical neurons.

NR1a/NR2A receptors = biological target: T3, NR1a/NR2A receptors (Rattus norvegicus, UniProt Q00959); experiment: NMDA antagonist potency on HEK cells transiently transfected with NR1a/NR2A subunits, patch clamp method; details: HEK293, 15 μM test concentration, 100 μM NMDA, -70 mV, read-out: NR1/NR2A % Inhibition of NMDA Ca2+-response 15 μM
T3 construct: expressed in transfected cells; host or cells: HEK293, transient expression
T3 sequence (Q00959 20-1464 limits assumed): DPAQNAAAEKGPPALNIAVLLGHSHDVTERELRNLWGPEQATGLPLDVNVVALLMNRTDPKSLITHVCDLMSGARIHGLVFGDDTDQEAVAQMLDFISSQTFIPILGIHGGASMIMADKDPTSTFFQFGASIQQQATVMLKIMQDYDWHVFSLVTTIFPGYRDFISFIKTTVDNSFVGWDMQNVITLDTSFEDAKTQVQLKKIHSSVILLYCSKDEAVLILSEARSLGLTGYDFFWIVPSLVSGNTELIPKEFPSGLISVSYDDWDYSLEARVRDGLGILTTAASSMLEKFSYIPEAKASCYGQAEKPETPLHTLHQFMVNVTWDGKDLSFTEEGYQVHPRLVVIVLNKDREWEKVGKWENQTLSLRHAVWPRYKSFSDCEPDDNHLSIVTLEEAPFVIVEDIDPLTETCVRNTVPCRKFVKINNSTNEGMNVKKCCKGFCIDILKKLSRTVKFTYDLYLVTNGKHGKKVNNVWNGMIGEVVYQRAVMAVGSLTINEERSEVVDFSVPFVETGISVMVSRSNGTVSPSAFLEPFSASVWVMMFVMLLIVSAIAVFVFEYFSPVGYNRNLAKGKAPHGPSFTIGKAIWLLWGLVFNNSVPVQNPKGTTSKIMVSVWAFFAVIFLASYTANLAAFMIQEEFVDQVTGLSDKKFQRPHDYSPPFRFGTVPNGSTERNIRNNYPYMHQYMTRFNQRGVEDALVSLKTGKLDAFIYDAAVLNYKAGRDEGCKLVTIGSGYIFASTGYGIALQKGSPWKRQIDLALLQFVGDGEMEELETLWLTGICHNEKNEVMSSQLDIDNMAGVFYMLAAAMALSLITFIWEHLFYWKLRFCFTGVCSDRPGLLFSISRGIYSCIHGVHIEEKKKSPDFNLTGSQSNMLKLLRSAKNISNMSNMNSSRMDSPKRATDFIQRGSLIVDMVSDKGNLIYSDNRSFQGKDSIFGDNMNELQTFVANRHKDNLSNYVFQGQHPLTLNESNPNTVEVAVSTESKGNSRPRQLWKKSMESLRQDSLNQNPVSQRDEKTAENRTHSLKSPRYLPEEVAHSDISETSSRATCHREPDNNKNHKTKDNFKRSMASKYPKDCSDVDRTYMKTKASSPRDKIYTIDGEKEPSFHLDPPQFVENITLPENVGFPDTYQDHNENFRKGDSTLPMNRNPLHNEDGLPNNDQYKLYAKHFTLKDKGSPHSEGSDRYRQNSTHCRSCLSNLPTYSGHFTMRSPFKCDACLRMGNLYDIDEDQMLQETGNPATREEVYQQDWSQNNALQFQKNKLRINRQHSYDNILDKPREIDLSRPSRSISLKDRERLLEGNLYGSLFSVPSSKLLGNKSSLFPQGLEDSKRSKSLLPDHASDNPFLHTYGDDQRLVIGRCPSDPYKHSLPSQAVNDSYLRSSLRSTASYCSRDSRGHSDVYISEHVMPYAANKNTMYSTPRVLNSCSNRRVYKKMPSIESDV
Protocol: as §1
Assessment of NMDA Antagonist Potency on Cells Transfected with NR1a/NR2A Subunits—Patch Clamp Method
Cells transiently expressing NR1a/NR2A receptors and grown onto coverslips were used in patch clamp experiments. Whole-cell patch clamp recording was done according to the standard technique. Cell cultures were constantly superfused with an extracellular solution (140 mM NaCl, 5 mM KCl, 5 mM Hepes, 5 mM Na-Hepes, 2 mM CaCl2, 20 mM glucose, 10 μM glycine, pH 7.35) at room temperature. Patch pipettes with resistance between 3 and 6 MΩ were filled with an intracellular solution (140 mM CsCl, 11 mM EGTA, and 10 mM Hepes, pH 7.3). The inward current elicited by 100 μM NMDA was recorded from cells voltage clamped at −70 mV. Compounds were applied via a multibarrel ejection device controlled by electromagnetic valves. First NMDA was repeatedly administered until stabilization of responses, then it was given in the presence of the test compound. The degree of inhibition—expressed as percentage—was calculated from the peak currents evoked by NMDA in the presence and absence of the test compound. Selectivity ratio (NR2B/NR2A), was calculated as the ratio of test dose on NR1/2A transfected cells and IC50 value of NMDA antagonism on NR1/NR2B expressing cells.

[1] = rat primary neocortical cultures, 4-7 days in vitro, calcium elevation induced by 40 μM NMDA, Fluo-4, read-out: NMDA IC50

Compound	IC50 (NMDA receptors; [1]) [nM]	other results
O=C(c1cc2c(ccc3cn[nH]c32)[nH]1)N1CCC(Cc2ccc(F)cc2)CC1 [Compound 4570001661, [4-(4-Fluorobenzyl)piperidin-1-yl]-(1,6-dihydro-pirrolo[2,3-g]indazol-7-yl)-methanone]	150	–
O=C(c1cc2ccc3[nH]ccc3c2[nH]1)N1CCC(Cc2ccccc2)CC1 [Compound 4514305, 1-(4-Benzylpiperidin-1-yl)-1-(1,6-dihydro-1,6-diaza-as-indacene-2-yl)methanone]	392	–
O=C(c1cc2cc3[nH]c(=O)[nH]c3cc2[nH]1)N1CCC(Cc2ccccc2)CC1 [Compound 4570002045, 6-(4-Benzylpiperidin-1-carbonyl)-3,5-dihydro-1H-imidazo[4,5-f]indole-2-one]	440	–
Oc1ccc(OCCN2CCC(Cc3ccc(F)cc3)CC2)cc1 [Co-111103, 1-[2-(4-hydroxyphenoxy)ethyl]-4-(4-fluorobenzyl)piperidine, reference compound]	60	–
O=C(c1nc2c(ccc3oc(=O)[nH]c32)[nH]1)N1CCC(Cc2ccccc2)CC1 [Compound 4570001971, 7-(4-Benzylpiperidin-1-carbonyl)-1,6-dihydro-3-oxa-1,6,8-triaza-as-indacen-2-one]	328	–
O=C(CCN1CCC(Cc2ccc(F)cc2)CC1)c1ccc2[nH]c(=O)oc2c1 [EMD 95885, reference compound]	35	–
O=C(c1nc2cc3[nH]c(=O)oc3cc2[nH]1)N1CCC(Cc2ccccc2)CC1 [Compound 4570001972, 6-(4-Benzylpiperidin-1-carbonyl)-3,5-dihydro-imidazo[4′,5′;4,5]benzo[1,2-d]oxazole-2-one]	193	–
C[C@@H]([C@@H](O)c1ccc(O)cc1)N1CCC(O)(c2ccccc2)CC1 [CP 101,606, (1S,2S)-1-(4-hydroxyphenyl)-2-(4-hydroxy-4-phenylpiperidine-1-yl)-1-propanol, reference compound]	–	inhibition at 15 µM (NR1a/NR2A receptors): -8.8%
C[C@@H](CN1CCC(Cc2ccccc2)CC1)[C@@H](O)c1ccc(O)cc1 [Ro 25.6981, R-(R*,S*)-1-(4-hydroxyphenyl)-2-methyl-3-[4-(phenylmethyl)piperidin-1-yl]-1-propanol, reference compound]	–	IC50 (NMDA receptors): 159 nM
O=C(c1cc2c(ccc3[nH]cnc32)[nH]1)N1CCC(Cc2ccc(F)cc2)CC1 [Compound 4570001688, [4-(4-Fluorobenzyl)piperidin-1-yl]-(3,6-dihydro-imidazo[4,5-e]indol-7-yl)methanone]	88	–
O=C(c1cc2cc3[nH]c(=O)oc3cc2[nH]1)N1CCC(Cc2ccccc2)CC1 [Compound 4570001461, 6-(4-Benzylpiperidin-1-carbonyl)-1,5-dihydro-oxazolo[4,5-f]indole-2-one]	–	IC50 (NR1a/NR2B receptors): 15 nM; inhibition at 15 µM (NR1a/NR2A receptors): 14.9%
O=C(c1cc2ccc(O)cc2[nH]1)N1CCC(Cc2ccc(F)cc2)CC1 [Compound 4513848, 1-[4-(4-Fluorobenzyl)piperidine-1-yl]-1-(6-hydroxy-1H-indole-2-yl)methanone]	90	–
Cc1ccc(CC2CCN(C(=O)c3cc4c(ccc5[nH]ncc54)[nH]3)CC2)cc1 [Compound 4570002340, (3,6-Dihydro-pirrolo[3,2-e]indazol-7-yl)-[4-(4-methylbenzyl)piperidin-1-yl]methanone]	127	–
O=C(c1cc2cc3[nH]c(=O)oc3cc2[nH]1)N1CCC(OCc2ccccc2)CC1 [Compound 4570001462, 6-(4-Benzyloxypiperidin-1-carbonyl)-1,5-dihydro-oxazolo[4,5-f]indole-2-one]	79	–

More lines, main results first:

IC50 (NMDA receptors; [1]) [nM]	Compound	other results
20	O=C(c1cc2c(ccc3[nH]ncc32)[nH]1)N1CCC(Cc2ccccc2)CC1 [Compound 4570001689, (4-Benzylpiperidin-1-yl)-(3,6-dihydro-pirrolo[3,2-e]indazol-7-yl)methanone]	–
22	O=C(c1cc2c(ccc3[nH]ncc32)[nH]1)N1CCC(Cc2ccc(F)cc2)CC1 [Compound 4570001690, [4-(4-Fluorobenzyl)piperidin-1-yl]-(3,6-dihydro-pirrolo[3,2-e]indazol-7-yl)methanone]	–
42	Cc1ccc(OC2CCN(C(=O)c3cc4c(ccc5[nH]ncc54)[nH]3)CC2)cc1 [Compound 4570002260, (3,6-Dihydro-pirrolo[3,2-e]indazol-7-yl)-(4-p-tolyloxypiperidin-1-yl)methanone]	IC50 (NR1a/NR2B receptors): 30 nM; selectivity toward NR2B subunit containing NMDA receptors (in words) (NR1a/NR2B receptors; according to the results in Table 2): highly selective; Selectivity (selectivity ratio NR2B/NR2A) (NR1a/NR2B receptors; ratio of test concentration on NR1/NR2A transfected cells and IC50 value on NR1/NR2B expressing cells): >500; inhibition at 15 µM (NR1a/NR2A receptors): 3.3%
41	O=C(c1cc2cc3[nH]c(=O)oc3cc2[nH]1)N1CCC(Cc2ccc(F)cc2)CC1 [Compound 4570001484, 6-[4-(4-Fluorobenzyl)piperidin-1-carbonyl]-1,5-dihydro-oxazolo[4,5-f]indole-2-one]	–
58	O=C(c1cc2c(ccc3cn[nH]c32)[nH]1)N1CCC(Cc2ccccc2)CC1 [Compound 4570001662, (4-Benzylpiperidin-1-yl)-(1,6-dihydro-pirrolo[2,3-g]indazol-7-yl)-methanone]	–
9	Cc1ccc(CC2CCN(C(=O)c3nc4ccc(O)cc4[nH]3)CC2)cc1 [Compound 4570001378, (6-Hydroxy-1H-benzoimidazol-2-yl)-[4-(4-methyl-benzyl)-piperidine-1-yl]-methanone]	–
50	O=C(c1cc2c(ccc3[nH]cnc32)[nH]1)N1CCC(Cc2ccccc2)CC1 [Compound 4570001779, (4-Benzylpiperidin-1-yl)-(3,6-dihydro-imidazo[4,5-e]indol-7-yl)methanone]	–
